Data from US11883526B2 (priority 2019, dated 2024).

Tests used:
[1] = tested on: subjects with MDD at imminent risk for suicide; assay: Beck Scale for Suicidal Ideation, BSS ([…]2001); assay type: in vivo, human; conditions: 84 mg; for BSS total score change from baseline, Diff. of LS Means (minus Placebo): ANCOVA LOCF, ITT
Procedure: The BSS is a 21-item self-reported instrument to detect and measure the severity of suicidal ideation in adults and adolescents aged 17 years and older. The BSS total score represents the severity of suicide ideation, and it is calculated by summing the ratings of the first 19 items; the total score ranges from 0 to 38, with a higher score representing greater suicide ideation. Increasing scores reflect increases in suicidal risk.

[2] = tested on: patients with treatment-resistant depression (TRD); assay: GAD-7 (Example 7); assay type: in vivo, human
Procedure: Overall illness severity was assessed on the Clinical Global Impression of Severity (CGI-S) scale (Guy, “ECDEU Assessment Manual for Psychopharmacology—Revised (DHEW Publ No ADM 76-338)”, Rockville, Md.: U.S. Department of Health, Education, and Welfare, Public Health Service, Alcohol, Drug Abuse, and Mental Health Administration, NIMH Psychopharmacology Research Branch, Division of Extramural Research Programs; 1976, pp 218-222). Participants assessed their severity of anxiety on the Generalized Anxiety Disorder 7-item (GADS-7) Scale (See, Tables 157 and 158). See, Spitzer, “A brief measure for assessing generalized anxiety disorder—the GAD-7”, Arch. Intern. Med., 2006, 166(10):1092-1097.

[3] = Pharmacokinetics assembled from 14 Phase 1 studies (Example 10); conditions: for Terminal t1/2 / AUClast / Cmax / tmax: young adult subjects; for Terminal t1/2: range across studies; for AUClast / Cmax: range of mean values; for tmax: range of median values
Procedure: The data herein was assembled from 14 Phase 1 studies; each Phase 1 study was performed similarly to the study outlined in Example 9 in which the PK of esketamine was assessed.

adult subjects with TRD [4] = conditions: double-blind phase
Procedure: The CADSS is an instrument for the measurement of present-state dissociative symptoms, and was administered to assess treatment-emergent dissociative symptoms. The CADSS consists of 23 subjective items, divided into 3 components: Depersonalization (Items 3 to 7, 20, and 23), derealization (Items 1, 2, 8 to 13, 16 to 19, and 21) and amnesia (Items 14, 15, and 22). Participant's responses were coded on a 5-point scale (0=not at all through to 4=extremely).
The Clinician Administered Dissociative States Scale (CADSS) was measured prior to the start of each dose, at 40 minutes, and 1.5 hours postdose.

adult subjects with TRD [5] = conditions: double-blind phase; remark: listed apart in the source
Procedure: The MOAA/S was used to measure treatment-emergent sedation, with correlation to levels of sedation defined by the American Society of Anesthesiologists (ASA) continuum. The MOAA/S scores range from 0=no response to painful stimulus (corresponds to ASA continuum for general anesthesia) to 5=readily responds to name spoken in normal tone (awake; corresponds to ASA continuum for minimal sedation).
On each intranasal dosing day, the MOAA/S was performed every 15 minutes from pre-dose to t=+1.5 hours post-dose. If the score was ≤3 at any time during the 1.5 hours post-dose interval, the MOAA/S was performed every 5 minutes until a score of 4 is reached (at which point a frequency of every 15 minutes can be resumed until t=+1.5 hours post dose). […] For subjects with a score of 4, the assessment was repeated every 15 minutes. […]
The Modified Observer's Assessment of Alertness/Sedation (MOAA/S) was used to measure treatment-emergent sedation with correlation to levels of sedation defined by the American Society of Anesthesiologists (ASA) continuum. The MOAA/S scores ranged from 0 (No response to painful stimulus; corresponds to ASA continuum for general anesthesia) to 5 (Readily responds to name spoken in normal tone [awake]; corresponding to ASA continuum for minimal sedation).

[6] = tested on: subjects with MDD at imminent risk for suicide; conditions: 84 mg
Procedure: The CADSS was measured prior to the start of each dose, at 40 minutes, 2 hours, and 4 hours postdose.

## CN[C@]1(c2ccccc2Cl)CCCCC1=O [esketamine, (S)-2-(2-chlorophenyl)-2-(methylamino)cyclohexanone]
[1]; Day 1 4-hours postdose, Day 2 (DB), End Point (DB)
  change in BSS total score vs placebo: no statistically significant differences
[1]; Day 1(DB): 4 H
  BSS total score change from baseline, Diff. of LS Means (minus Placebo): −2.3
[1]; Day 2(DB)
  BSS total score change from baseline, Diff. of LS Means (minus Placebo): −1.9
[1]; End Point(DB)
  BSS total score change from baseline, Diff. of LS Means (minus Placebo): −1.7
[2]; Period 1, 28 mg
  GAD-7 change, LS mean difference from placebo (SE): −0.21 (1.461)
[2]; Period 1, 56 mg
  GAD-7 change, LS mean difference from placebo (SE): −1.40 (1.478)
[2]; Period 2, 56 mg
  GAD-7 change, LS mean difference from placebo (SE): 0.60 (1.033)
[3]; nasal administration
  mean terminal t1/2: 7 to 12 h
[3]; single dose nasal spray 28 mg
  Terminal t1/2: 7.25 to 16.5 h
  AUClast: 128 to 183 ng·h/mL
  Cmax: 49.7 to 70.5 ng/mL
  tmax: 0.33 to 0.67 h
[3]; single dose nasal spray 56 mg
  Terminal t1/2: 6.8 to 9.83 h
  AUClast: 216 to 317 ng·h/mL
  Cmax: 71.8 to 117 ng/mL
  tmax: 0.50 to 0.77 h
[3]; single dose nasal spray 84 mg
  Terminal t1/2: 6.6 to 12.0 h
  AUClast: 310 to 489 ng·h/mL
  Cmax: 95.0 to 164 ng/mL
  tmax: 0.53 to 0.83 h
Adult subjects with TRD [4]
  dissociative and perceptual change symptoms (CADSS) resolved by: ≤ 1.5 hours postdose
Adult subjects with TRD [5]
  sedation (MOAA/S) resolved by: ≤ 1.5 hours postdose
[6]
  dissociative and perceptual change symptoms (CADSS) resolved by: ≤ 2 hours post dose
